Reference: the supplement of paper PMC10307832

How the values were obtained:
Assay in all cases: relative viability (nuclei count vs DMSO), 5 days (fraction); higher = more cells survive
[1] = tested on: HCC-78
How it was run: (§1)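 Relative viability divides the nuclei count in treated wells by that in vehicle wells. Lung cancer cell lines were seeded in 1536-well plates, dosed by pin tool the next day, and fixed and stained after 5 days in one step with final 0.05% Triton X-100, 1% formaldehyde and 1 ug/ml Hoechst. Dosing was a single drug or a fixed anchor-drug dose plus five library-drug doses (not always all listed) in √10 steps, and values are medians of duplicate plates imaged at 4×.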

[2] = tested on: COR-L 105
How it was run: as §1

[3] = tested on: HOP-62
How it was run: as §1

[4] = tested on: NCI-H1915
How it was run: as §1

[5] = tested on: NCI-H460
How it was run: as §1

[6] = tested on: NCI-H1666
How it was run: as §1

[7] = tested on: NCI-H2009
How it was run: as §1

[8] = tested on: EPLC-272H
How it was run: as §1

[9] = tested on: SK-LU-1
How it was run: as §1

[10] = tested on: NCI-H358
How it was run: as §1

[11] = tested on: NCI-H1792; details: first compound 0.253 µM
How it was run: as §1

SMILES: O=c1cc(-c2cccc3c2Sc2ccccc2S3)oc(N2CCOCC2)c1 + CS(=O)(=O)N1CCN(Cc2cc3nc(-c4cccc5[nH]ncc45)nc(N4CCOCC4)c3s2)CC1 [Pictilisib] (partner 1 µM)
- relative viability ([1]; first compound 0.08 µM): 0.182
- relative viability ([1]; first compound 0.253 µM): 0.199
- relative viability ([1]; first compound 0.8 µM): 0.207
- relative viability ([1]; first compound 2.53 µM): 0.196
- relative viability ([1]; first compound 8 µM): 0.255
- relative viability ([2]; first compound 0.08 µM): 0.502
- relative viability ([2]; first compound 0.253 µM): 0.441
- relative viability ([2]; first compound 0.8 µM): 0.362
- relative viability ([2]; first compound 2.53 µM): 0.338
- relative viability ([2]; first compound 8 µM): 0.408
- relative viability ([3]; first compound 0.08 µM): 0.782
- relative viability ([3]; first compound 0.253 µM): 1.02
- relative viability ([3]; first compound 0.8 µM): 0.89
- relative viability ([3]; first compound 2.53 µM): 0.831
- relative viability ([3]; first compound 8 µM): 0.779
- relative viability ([4]; first compound 0.08 µM): 0.821
- relative viability ([4]; first compound 0.253 µM): 1.01
- relative viability ([4]; first compound 0.8 µM): 0.904
- relative viability ([4]; first compound 2.53 µM): 0.828
- relative viability ([4]; first compound 8 µM): 0.976
- relative viability ([5]; first compound 0.08 µM): 0.289
- relative viability ([5]; first compound 0.253 µM): 0.452
- relative viability ([5]; first compound 0.8 µM): 0.321
- relative viability ([5]; first compound 2.53 µM): 0.384
- relative viability ([5]; first compound 8 µM): 0.545
- relative viability ([6]; first compound 0.08 µM): 0.404
- relative viability ([6]; first compound 0.253 µM): 0.416
- relative viability ([6]; first compound 0.8 µM): 0.323
- relative viability ([6]; first compound 2.53 µM): 0.411
- relative viability ([6]; first compound 8 µM): 0.396
- relative viability ([7]; first compound 0.08 µM): 0.813
- relative viability ([7]; first compound 0.253 µM): 0.962
- relative viability ([7]; first compound 0.8 µM): 0.968
- relative viability ([7]; first compound 2.53 µM): 0.728
- relative viability ([7]; first compound 8 µM): 0.745
- relative viability ([8]; first compound 0.08 µM): 0.321
- relative viability ([8]; first compound 0.253 µM): 0.334
- relative viability ([8]; first compound 0.8 µM): 0.29
- relative viability ([8]; first compound 2.53 µM): 0.289
- relative viability ([8]; first compound 8 µM): 0.327
- relative viability ([9]; first compound 0.08 µM): 0.616
- relative viability ([9]; first compound 0.253 µM): 0.515
- relative viability ([9]; first compound 0.8 µM): 0.594
- relative viability ([9]; first compound 2.53 µM): 0.541
- relative viability ([9]; first compound 8 µM): 0.596
- relative viability ([10]; first compound 0.08 µM): 0.311
- relative viability ([10]; first compound 0.253 µM): 0.328
- relative viability ([10]; first compound 0.8 µM): 0.351
- relative viability ([10]; first compound 2.53 µM): 0.269
- relative viability ([10]; first compound 8 µM): 0.33
- relative viability [11]: 0.257
